Results on 14 molecules are retold here after patent publication US8686022B2, “7-(piperazine-1-ymethyl)-1H-indole-2-carboxylic acid (phenyl)-amide derivatives and allied compounds as p38 MAP kinase inhibitors for the treatment of respiratory diseases” (Boehringer Ingelheim International GmbH, priority 2008, dated 2014).

For one data set, the target named is p38 MAP-kinase (Homo sapiens, UniProt Q16539). Put plainly: p38 MAP-kinase enzymatic assay (phosphorylation of GST-tagged ATF2, chemoluminescence). The data set is classed as biochemical. The following applies: inhibitor concentration 1 μM, activated p38 MAP-kinase 1 nM, ATP 100 μM; for inhibition at 1 µM: read-out: p38 (% Inh @ 1 μM). The procedure: In this, the amount of a substrate phosphorylated by the kinase is quantified. The test is carried out as follows:
The kinase reaction is carried out in the presence of HEPES (20 mM, pH 7), MgCl2 (10 mM), DTT (1 mM) and TWEEN20 (0.01%). First, dimethylsulphoxide or inhibitor (final concentration: 1 μM) dissolved in dimethylsulphoxide are placed in a reaction vessel. Then the activated p38 MAP-kinase (final concentration 1 nM) is added and the mixture is incubated for 4 h at ambient temperature. Then a mixture of substrate (GST-tagged ATF2) and ATP is added and everything is incubated together for a further hour (final concentration ATP: 100 μM; final concentration ATF2: 10 nM).
The concentration of phosphorylated ATF2 is quantified by chemoluminescence-induced light emission. For this, a glutathione donor bead (final concentration: 5 μg/ml) which binds to the gluthathione on the ATF2 and phospho-ATF2 antibodies are added to the reaction mixture (final concentration: 3 nM; this binds the phosphate group added by the kinase reaction) to which a Protein A Acceptor Bead (final concentration: 5 μg/ml) binds. These components are dissolved in a buffer which contains 20 mM HEPES pH 7.0, 200 mM NaCL, 80 mM EDTA as well as 0.3% BSA. This reaction mixture is incubated in the dark for 1 hour at ambient temperature. When these beads come physically close, visible light is emitted which is measured in a photometer at 520-620 nm.
To determine the inhibitory activity of the compounds according to the invention a calculation is made to determine the percentage by which the kinase activity is inhibited at a fixed inhibitor concentration of 1 μM. The maximum activity is determined by non-inhibited kinase. The minimum activity or nonspecific background activity is determined using a reaction mixture without kinase.
Table 2 summarises the degree of inhibition of the enzyme p38 MAP-kinase—as described hereinbefore—mediated by the compounds according to the invention detailed in the section “Preparation of the final compounds”.

The next data set has as its target cytochrome P450 2C9 (Homo sapiens, UniProt P11712). Put plainly: Determining the cyp2C9 activity (O-demethylation of [O-methyl-14C]-naproxen). Type of data set: in vitro ADME. Conditions: human recombinant cytochrome P450 2C9; 37° C.; <0.4 μM when inhibition >50% at lowest concentration; read-out: CYP 2C9 IC50. The procedure: Determining the cyp2C9 Activity:
The assay is carried out in a robot system with 96-well plates. The final incubation volume is 200 μl of TRIS-Puffer (0.1 M), magnesium chloride (5 mM), recombinant protein (40 pmol/ml), ^14C-labelled naproxen (80 μM) and the test compound in one of 4 concentrations (50 μM, 10 μM, 2 μM and 0.4 μM) as a duplicate in each case. After a short preincubation period the reactions are started by the addition of the cofactor (NADPH, 1 mM) and ended after 15 min by the addition of 50 μl of a 10% aqueous trichloroacetic acid solution. One aliquot of the incubate is transferred onto a 96-well solid phase extraction plate and extracted. The ^14C-formaldehyde formed during the reaction is not retained on the solid phase extraction plate and is thus separated from the unmetabolised substrate by washing the solid phase extraction plate with water. One aliquot of the eluate is transferred into a well plate suitable for liquid scintillation. […] The IC50 is determined by the least squares method using the following formula: control activity=(100% control activity/(1+(I/IC50)S))−B where I=Inhibitor concentration S=Pitch B=Background activity
When the inhibition of the reaction is >50% even at the lowest concentration of the test compound, the IC50 is given as <0.4 μM.

Data set [1] is described as follows: Determining the solubility (saturated solution in McIlvaine buffer pH 7.4, UV spectroscopy). Type of data set: physicochemical. Conditions: pH 7.4, aqueous buffer, thermodynamic from solid, shaken 2 hours, 0.75 mg solid in 0.75 ml. The procedure:
Determining the Solubility:
Saturated solutions are prepared in suitable well dishes by adding 0.75 ml of a McIlvaine buffer (pH 7.4) to the well in question containing 0.75 mg of solid of an active substance. The wells are shaken for 2 hours and then filtration is carried out through a suitable filter membrane (typically polytetrafluoroethylene with a pore size of 0.45 μm). Filter absorption is prevented by discarding the first few drops of filtrate. The amount of active substance dissolved is determined by UV spectroscopy.

≈ marks a conversion by molar mass, not a printed value. Where “and” joins values, the source holds several entries; their conditions need not be identical. Equal values may be shown once.

One may read the IC50 as the concentration that gives 50% inhibition. The term solubility denotes the dissolved amount per volume that the medium holds. High values mean a readily soluble substance, low ones a poorly soluble substance.

Chain of cytochrome P450 2C9 (P11712 whole entry): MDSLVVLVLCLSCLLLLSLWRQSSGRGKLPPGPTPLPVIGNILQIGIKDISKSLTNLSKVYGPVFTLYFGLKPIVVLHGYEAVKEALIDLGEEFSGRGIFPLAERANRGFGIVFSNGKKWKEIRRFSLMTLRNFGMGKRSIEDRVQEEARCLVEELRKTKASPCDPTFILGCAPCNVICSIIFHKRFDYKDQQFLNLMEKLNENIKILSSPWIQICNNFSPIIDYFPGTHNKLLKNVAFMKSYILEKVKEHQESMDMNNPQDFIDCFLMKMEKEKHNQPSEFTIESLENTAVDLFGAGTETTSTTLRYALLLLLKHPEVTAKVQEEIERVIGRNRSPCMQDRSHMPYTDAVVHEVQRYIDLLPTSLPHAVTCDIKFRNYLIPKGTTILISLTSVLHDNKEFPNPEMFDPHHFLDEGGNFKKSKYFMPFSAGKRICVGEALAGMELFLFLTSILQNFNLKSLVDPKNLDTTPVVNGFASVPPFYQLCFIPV
Chain of p38 MAP-kinase (Q16539 whole entry): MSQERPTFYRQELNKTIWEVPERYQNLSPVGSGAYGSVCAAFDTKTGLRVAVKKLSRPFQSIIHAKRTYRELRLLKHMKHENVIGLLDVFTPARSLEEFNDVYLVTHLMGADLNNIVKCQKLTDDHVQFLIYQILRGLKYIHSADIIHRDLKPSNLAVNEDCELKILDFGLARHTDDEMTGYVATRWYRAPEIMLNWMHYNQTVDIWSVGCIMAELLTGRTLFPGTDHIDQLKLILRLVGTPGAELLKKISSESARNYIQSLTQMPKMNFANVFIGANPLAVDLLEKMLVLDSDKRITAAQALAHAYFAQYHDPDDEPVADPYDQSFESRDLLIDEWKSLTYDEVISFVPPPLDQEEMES

With `COc1c(NC(=O)c2cc3cccc(CN4CCN(C(=O)[C@@H]5CCCN5C)CC4)c3n2C)cc(C(C)(C)C)cc1NS(C)(=O)=O` [1(1), (S)-1-methyl-7-[4-(1-methyl-pyrrolidine-2-carbonyl)-piperazin-1-ylmethyl]-1H-indole-2-carboxylic acid(5-tert-butyl-3-methanesulphonylamino-2-methoxy-phenyl)-amide], at p38 MAP-kinase, the inhibition at 1 µM was determined as 99.6%. Moreover, at cytochrome P450 2C9, the IC50 turned out to be 2130 nM. The molecule further showed a solubility at 2 h in data set [1] of 340 µg/mL (≈ 532 µM).

In the case of `COc1c(NC(=O)c2cc3cccc(CN4CCN(C(=O)C5CN(C)C5)CC4)c3n2C)cc(C(C)(C)C)cc1NS(C)(=O)=O` [1(2), 1-methyl-7-[4-(1-methyl-azetidine-3-carbonyl)-piperazin-1-ylmethyl]-1H-indole-2-carboxylic acid(5-tert-butyl-3-methanesulphonylamino-2-methoxy-phenyl)-amide], the inhibition at 1 µM on p38 MAP-kinase is 98.5%. In addition, the IC50 on cytochrome P450 2C9 was 1340 nM. This molecule also registered a solubility at 2 h in data set [1] of 59 µg/mL (≈ 94.4 µM).

For the molecule `COc1c(NC(=O)c2cc3cccc(CN4CCN(C(=O)[C@H]5CCCN5C)CC4)c3n2C)cc(C(C)(C)C)cc1NS(C)(=O)=O` [1(3), (R)-1-methyl-7-[4-(1-methyl-pyrrolidine-2-carbonyl)-piperazin-1-ylmethyl]-1H-indole-2-carboxylic acid(5-tert-butyl-3-methanesulphonylamino-2-methoxy-phenyl)-amide], the inhibition at 1 µM on p38 MAP-kinase was 99.1%. Besides, the IC50 on cytochrome P450 2C9 came to 1040 nM. The molecule also yielded a solubility at 2 h in data set [1] of 160 µg/mL (≈ 250 µM).

In the case of `COc1c(NC(=O)c2cc3cccc(CN4CCN(C(=O)[C@@H]5CCCN5)CC4)c3n2C)cc(C(C)(C)C)cc1NS(C)(=O)=O` [1(4), (S)-1-methyl-7-[4-(pyrrolidine-2-carbonyl)-piperazin-1-ylmethyl]-1H-indole-2-carboxylic acid(5-tert-butyl-3-methanesulphonylamino-2-methoxy-phenyl)-amide], at p38 MAP-kinase, the inhibition at 1 µM was determined as 99.2%. In addition, the IC50 at cytochrome P450 2C9 came out at 890 nM. In data set [1], this molecule gave a solubility at 2 h of 100 µg/mL (≈ 160 µM).

As to `COc1c(NC(=O)c2cc3cccc(CN4CCN(C(=O)C5CCN5C)CC4)c3n2C)cc(C(C)(C)C)cc1NS(C)(=O)=O` (stereo not drawn) [1(5), 1-methyl-7-[4-(1-methyl-azetidine-2-carbonyl)-piperazin-1-ylmethyl]-1H-indole-2-carboxylic acid(5-tert-butyl-3-methanesulphonylamino-2-methoxy-phenyl)-amide], the inhibition at 1 µM at p38 MAP-kinase is 99%. Moreover, on cytochrome P450 2C9, the IC50 was 1630 nM. Further, the concentration in solution in data set [1] (solubility at 2 h) was 670 µg/mL (≈ 1070 µM).

`COc1c(NC(=O)c2cc3cccc(CC4CCN(C(=O)[C@H]5CCCN5C)CC4)c3n2C)cc(C(C)(C)C)cc1NS(C)(=O)=O` [1(6), (R)-1-methyl-7-[1-(1-methyl-pyrrolidine-2-carbonyl)-piperidin-4-ylmethyl]-1H-indole-2-carboxylic acid(5-tert-butyl-3-methanesulphonylamino-2-methoxy-phenyl)-amide]: the inhibition at 1 µM at p38 MAP-kinase came to 99.3%. Also, at cytochrome P450 2C9, the IC50 is 1430 nM. For the same molecule, in data set [1], the solubility at 2 h stood at 560 µg/mL (≈ 878 µM).

In the case of `COc1c(NC(=O)c2cc3cccc(CC4CCN(C(=O)[C@@H]5CCCN5C)CC4)c3n2C)cc(C(C)(C)C)cc1NS(C)(=O)=O` [1(7), (S)-1-methyl-7-[1-(1-methyl-pyrrolidine-2-carbonyl)-piperidin-4-ylmethyl]-1H-indole-2-carboxylic acid(5-tert-butyl-3-methanesulphonylamino-2-methoxy-phenyl)-amide], the inhibition at 1 µM on p38 MAP-kinase stood at 98.9%. Moreover, the IC50 at cytochrome P450 2C9 came out at 780 nM. This molecule came in with a solubility at 2 h in data set [1] of 170 µg/mL (≈ 267 µM).

On to `COc1c(NC(=O)c2cc3cccc(CN4CCN(C(=O)[C@@H]5C[C@@H](O)CN5C)CC4)c3n2C)cc(C(C)(C)C)cc1NS(C)(=O)=O` [1(8), 7-[4-((2S,4R)-4-hydroxy-1-methyl-pyrrolidine-2-carbonyl)-piperazin-1-ylmethyl]-1-methyl-1H-indole-2-carboxylic acid(5-tert-butyl-3-methanesulphonylamino-2-methoxy-phenyl)-amide], for which the inhibition at 1 µM at p38 MAP-kinase came out at 98.9%. The IC50 at cytochrome P450 2C9 is 1020 nM. The solubility at 2 h in data set [1] was found to be 84 µg/mL (≈ 128 µM).

On to `COc1c(NC(=O)c2cc3cccc(CN4CCN(C(=O)[C@H]5C[C@@H](OC)CN5C)CC4)c3n2C)cc(C(C)(C)C)cc1NS(C)(=O)=O` [1(9), 7-[4-((2R,4R)-4-methoxy-1-methyl-pyrrolidine-2-carbonyl)-piperazin-1-ylmethyl]-1-methyl-1H-indole-2-carboxylic acid(5-tert-butyl-3-methanesulphonylamino-2-methoxy-phenyl)-amide], for which the inhibition at 1 µM at p38 MAP-kinase stood at 98.9%. On cytochrome P450 2C9, the IC50 came to 1120 nM. The same molecule came in with a solubility at 2 h in data set [1] of 440 µg/mL (≈ 658 µM).

As to `COc1c(NC(=O)c2cc3cccc(CN4CCN(C(=O)[C@H]5C[C@@H](O)CN5C)CC4)c3n2C)cc(C(C)(C)C)cc1NS(C)(=O)=O` [1(10), 7-[4-((2R,4R)-4-hydroxy-1-methyl-pyrrolidine-2-carbonyl)-piperazin-1-ylmethyl]-1-methyl-1H-indole-2-carboxylic acid(5-tert-butyl-3-methanesulphonylamino-2-methoxy-phenyl)-amide], the inhibition at 1 µM on p38 MAP-kinase is 99.6%. Besides, at cytochrome P450 2C9, the IC50 came out at 410 nM. For the same molecule, the solubility at 2 h in data set [1] amounted to 43 µg/mL (≈ 65.7 µM).

For `COc1c(NC(=O)c2cc3cccc(CN4CCN(C(=O)[C@H]5C[C@H](O)CN5C)CC4)c3n2C)cc(C(C)(C)C)cc1NS(C)(=O)=O` [1(11), 7-[4-((2R,4S)-4-hydroxy-1-methyl-pyrrolidine-2-carbonyl)-piperazin-1-ylmethyl]-1-methyl-1H-indole-2-carboxylic acid(5-tert-butyl-3-methanesulphonylamino-2-methoxy-phenyl)-amide], at p38 MAP-kinase, the inhibition at 1 µM is 99.2%. The IC50 at cytochrome P450 2C9 was found to be 410 nM. Besides, in data set [1], the concentration in solution (solubility at 2 h) came to 45 µg/mL (≈ 68.7 µM).

As to `COc1c(NC(=O)c2cc3cccc(CN4CCN(C(=O)[C@@H]5C[C@H](O)CN5C)CC4)c3n2C)cc(C(C)(C)C)cc1NS(C)(=O)=O` [1(12), 7-[4-((2S,4S)-4-hydroxy-1-methyl-pyrrolidine-2-carbonyl)-piperazin-1-ylmethyl]-1-methyl-1H-indole-2-carboxylic acid(5-tert-butyl-3-methanesulphonylamino-2-methoxy-phenyl)-amide], on p38 MAP-kinase, the inhibition at 1 µM was determined as 98.9%. For the same molecule, the IC50 on cytochrome P450 2C9 was found to be 1550 nM. The same molecule showed a solubility at 2 h in data set [1] of 140 µg/mL (≈ 214 µM).

Consider `COc1c(NC(=O)c2cc3cccc(CN4CCN(C(=O)C(C)N5CCCC5)CC4)c3n2C)cc(C(C)(C)C)cc1NS(C)(=O)=O` (stereo not drawn) [1(13), 1-methyl-7-[4-(2-pyrrolidin-1-yl-propionyl)-piperazin-1-ylmethyl]-1H-indole-2-carboxylic acid-(5-tert-butyl-3-methanesulphonylamino-2-methoxy-phenyl)-amide], for which the inhibition at 1 µM at p38 MAP-kinase worked out at 98.7%. In addition, the IC50 at cytochrome P450 2C9 was found to be 560 nM. This molecule also yielded a solubility at 2 h in data set [1] of 40 µg/mL (≈ 61.3 µM).

As to `COc1c(NC(=O)c2cc3cccc(CN4CCN(C(=O)[C@@H]5CCCN5C)CC4)c3n2C)cc(C(C)(C)C)cc1[S+](C)[O-]` (stereo partly drawn) [11(3), 1-methyl-7-[4-((2S)-1-methyl-pyrrolidine-2-carbonyl)-piperazin-1-ylmethyl]-1H-indole-2-carboxylic acid-(5-tert-butyl-3-methanesulphinyl-2-methoxy-phenyl)-amide], at p38 MAP-kinase, the “p38 (% Inh @ 1 μM)” value was 99.0% and 98.7%; the inhibition at 1 µM came to 98.6%. For the same molecule, the IC50 on cytochrome P450 2C9 is 780 nM and 870 nM and 560 nM.
